According to patent publication US7396837B2, “Antitumoral analogs of lamellarins” (Pharma Mar, S.A.U., priority 2002, dated 2008):
Where two headings read alike, the source gives them in different places.

How the values were obtained:
K-562 = assay: SRB colorimetric cell growth inhibition assay, K-562; assay type: cell-based; details: Homo sapiens, K562, K-562
Procedure, shortened: (§1)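 Growth inhibition (GI), cytostatic total growth inhibition (TGI) and cytotoxic cell-kill (LC) parameters were calculated from SRB-stained cultures held under constant compound exposure, triplicates averaged.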

HT-29 = assay: SRB colorimetric cell growth inhibition assay, HT-29; assay type: cell-based; details: Homo sapiens; for CC50: cell killing (cytotoxic effect), read-out: LC50 HT-29; for GI50: GI=growth inhibition, read-out: GI50 HT-29; for IC (TGI): total growth inhibition (cytostatic effect), read-out: TGI HT-29
Procedure, shortened: as §1

PANC-1 = assay: SRB colorimetric cell growth inhibition assay, PANC-1; assay type: cell-based; details: Homo sapiens; for CC50: cell killing (cytotoxic effect), read-out: LC50 PANC-1; for IC (TGI): total growth inhibition (cytostatic effect), read-out: TGI PANC-1; for GI50: GI=growth inhibition, read-out: GI50 PANC-1
Procedure, shortened: as §1

SK-MEL-28 = assay: SRB colorimetric cell growth inhibition assay, SK-MEL-28; assay type: cell-based; details: Homo sapiens, SK-MEL-28, MEL-28; for GI50: GI=growth inhibition, read-out: GI50 MEL-28; for CC50: cell killing (cytotoxic effect), read-out: LC50 MEL-28; for IC (TGI): total growth inhibition (cytostatic effect), read-out: TGI MEL-28
Procedure, shortened: as §1

DU-145 = assay: SRB colorimetric cell growth inhibition assay, DU-145; assay type: cell-based; details: Homo sapiens; for CC50: cell killing (cytotoxic effect), read-out: LC50 DU-145; for GI50: GI=growth inhibition, read-out: GI50 DU-145; for IC (TGI): total growth inhibition (cytostatic effect), read-out: TGI DU-145
Procedure, shortened: as §1

LoVo = assay: SRB colorimetric cell growth inhibition assay, LoVo; assay type: cell-based; details: Homo sapiens; for CC50: cell killing (cytotoxic effect), read-out: LC50 LOVO; for GI50: GI=growth inhibition, read-out: GI50 LOVO; for IC (TGI): total growth inhibition (cytostatic effect), read-out: TGI LOVO
Procedure, shortened: as §1

A-549 = assay: SRB colorimetric cell growth inhibition assay, A-549; assay type: cell-based; details: Homo sapiens, A549, A-549; for GI50: GI=growth inhibition, read-out: GI50 A-549; for CC50: cell killing (cytotoxic effect), read-out: LC50 A-549; for IC (TGI): total growth inhibition (cytostatic effect), read-out: TGI A-549
Procedure, shortened: as §1

IGROV-ET = assay: SRB colorimetric cell growth inhibition assay, IGROV-ET (ET-743 resistant); assay type: cell-based; details: Homo sapiens, IGROV-ET; for GI50: GI=growth inhibition, read-out: GI50 IGROV-ET; for CC50: cell killing (cytotoxic effect), read-out: LC50 IGROV-ET; for IC (TGI): total growth inhibition (cytostatic effect), read-out: TGI IGROV-ET
Procedure, shortened: as §1

LNCaP = assay: SRB colorimetric cell growth inhibition assay, LNCaP; assay type: cell-based; details: Homo sapiens, LNCaP, LN-caP
Procedure, shortened: as §1

IGROV = assay: SRB colorimetric cell growth inhibition assay, IGROV; assay type: cell-based
Procedure, shortened: as §1

SK-BR-3 = assay: SRB colorimetric cell growth inhibition assay, SK-BR-3; assay type: cell-based; details: Homo sapiens; for CC50: cell killing (cytotoxic effect), read-out: LC50 SK-BR-3; for GI50: GI=growth inhibition, read-out: GI50 SK-BR-3; for IC (TGI): total growth inhibition (cytostatic effect), read-out: TGI SK-BR-3
Procedure, shortened: as §1

LoVo-Dox = assay: SRB colorimetric cell growth inhibition assay, LoVo-Dox (MDR); assay type: cell-based; details: Homo sapiens, LOVO-DOX; for GI50: GI=growth inhibition, read-out: GI50 LOVO-DOX; for CC50: cell killing (cytotoxic effect), read-out: LC50 LOVO-DOX; for IC (TGI): total growth inhibition (cytostatic effect), read-out: TGI LOVO-DOX
Procedure, shortened: as §1

human topoisomerase I = molecular target: T1, human topoisomerase I (Homo sapiens, UniProt P11387); assay: Topoisomerase I DNA relaxation assay (supercoiled plasmid DNA); assay type: biochemical; details: supercoiled plasmid DNA, each compound tested at 1 μM, agarose gel with ethidium bromide
T1 sequence (P11387 1-765): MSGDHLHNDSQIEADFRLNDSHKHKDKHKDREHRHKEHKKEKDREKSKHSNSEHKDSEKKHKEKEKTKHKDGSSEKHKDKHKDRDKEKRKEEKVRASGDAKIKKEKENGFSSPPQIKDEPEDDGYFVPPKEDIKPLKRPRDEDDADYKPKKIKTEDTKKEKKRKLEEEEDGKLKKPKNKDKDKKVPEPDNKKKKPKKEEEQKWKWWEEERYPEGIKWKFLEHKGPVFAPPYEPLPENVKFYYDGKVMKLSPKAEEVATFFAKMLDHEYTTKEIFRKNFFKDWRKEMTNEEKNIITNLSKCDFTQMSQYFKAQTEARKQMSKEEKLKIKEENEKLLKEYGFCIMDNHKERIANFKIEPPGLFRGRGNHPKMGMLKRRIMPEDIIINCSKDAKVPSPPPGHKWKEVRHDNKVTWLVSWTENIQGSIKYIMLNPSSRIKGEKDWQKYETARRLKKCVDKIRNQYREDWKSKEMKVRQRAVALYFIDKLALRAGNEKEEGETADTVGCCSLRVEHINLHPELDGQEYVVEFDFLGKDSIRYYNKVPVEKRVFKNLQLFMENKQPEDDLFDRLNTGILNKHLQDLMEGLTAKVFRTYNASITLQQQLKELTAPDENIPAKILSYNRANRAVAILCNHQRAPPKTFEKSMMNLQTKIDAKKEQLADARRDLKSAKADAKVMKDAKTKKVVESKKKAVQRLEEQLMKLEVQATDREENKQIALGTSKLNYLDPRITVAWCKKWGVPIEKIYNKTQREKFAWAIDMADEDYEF
Procedure, shortened: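 Supercoiled plasmid DNA was relaxed by human topoisomerase I with or without test compound at 1 μM. Products were resolved by agarose gel electrophoresis with ethidium bromide staining.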

[1] = Homo sapiens, IGROV; cell killing (cytotoxic effect); read-out: LC50 IGROV

COc1cc(-c2c3n(c4c(=O)oc5cc(OC(=O)[C@H](C)NC(=O)[C@H](C)NC(=O)OC(C)(C)C)c(OC)cc5c24)CCc2cc(OC(=O)[C@H](C)NC(=O)[C@H](C)NC(=O)OC(C)(C)C)c(OC)cc2-3)ccc1OC(=O)[C@H](C)NC(=O)[C@H](C)NC(=O)OC(C)(C)C [Compound 7]
GI50 (K-562; GI=growth inhibition, read-out: GI50 K-562): 596 nM
CC50 (K-562; cell killing (cytotoxic effect), read-out: LC50 K-562): 8140 nM
IC (TGI) (K-562; total growth inhibition (cytostatic effect), read-out: TGI K-562): 2680 nM
CC50 (HT-29; HT-29, HT-29): 8140 nM
GI50 (HT-29; HT-29): 871 nM
IC (TGI) (HT-29; HT-29): 3310 nM
CC50 (PANC-1; PANC-1, PANC-1): 8040 nM
IC (TGI) (PANC-1; PANC-1, PANC-1): 3310 nM
GI50 (PANC-1; PANC-1): 1360 nM
GI50 (SK-MEL-28): 652 nM
CC50 (SK-MEL-28): 3750 nM
IC (TGI) (SK-MEL-28): 1640 nM
CC50 (DU-145; DU-145, DU-145): 5410 nM
GI50 (DU-145; DU-145): 993 nM
IC (TGI) (DU-145; DU-145): 2310 nM
CC50 (LoVo; LoVo): 8140 nM
GI50 (LoVo; LOVO): 2000 nM
IC (TGI) (LoVo; LOVO): 5050 nM
GI50 (A-549): 969 nM
CC50 (A-549): 8140 nM
IC (TGI) (A-549): 2960 nM
GI50 (IGROV-ET): 1860 nM
CC50 (IGROV-ET): 8140 nM
IC (TGI) (IGROV-ET): 4580 nM
GI50 (LNCaP; GI=growth inhibition, read-out: GI50 LN-caP): 425 nM
CC50 (LNCaP; cell killing (cytotoxic effect), read-out: LC50 LN-caP): 3610 nM
IC (TGI) (LNCaP; total growth inhibition (cytostatic effect), read-out: TGI LN-caP): 1360 nM
CC50 (IGROV; [1]): 5790 nM
GI50 (IGROV; Homo sapiens; IGROV; GI=growth inhibition; read-out: GI50 IGROV): 1230 nM
IC (TGI) (IGROV; Homo sapiens; IGROV; total growth inhibition (cytostatic effect); read-out: TGI IGROV): 2670 nM
CC50 (SK-BR-3; SK-BR-3, SK-BR-3): 5980 nM
GI50 (SK-BR-3; SK-BR-3): 1140 nM
IC (TGI) (SK-BR-3; SK-BR-3): 2610 nM
GI50 (LoVo-Dox): 3660 nM
CC50 (LoVo-Dox): 8140 nM
IC (TGI) (LoVo-Dox): 8140 nM

COc1cc(-c2c3n(c4c(=O)oc5cc(OC(=O)CCc6ccccc6)c(OC)cc5c24)CCc2cc(OC(=O)CCc4ccccc4)c(OC)cc2-3)ccc1OC(=O)CCc1ccccc1 [Compound 11]
GI50 (HT-29; HT-29, HT-29): 38.4 nM
CC50 (HT-29; HT-29, HT-29): 8230 nM
IC (TGI) (HT-29; HT-29, HT-29): 175 nM
stimulation of DNA cleavage by topoisomerase I / inhibition of topoisomerase I (nicked DNA band) in DNA relaxation assay (human topoisomerase I): inactive
GI50 (PANC-1; PANC-1, PANC-1): 214 nM
CC50 (PANC-1; PANC-1, PANC-1): 11100 nM
IC (TGI) (PANC-1; PANC-1, PANC-1): 1760 nM
GI50 (SK-MEL-28): 200 nM
CC50 (SK-MEL-28): 6180 nM
IC (TGI) (SK-MEL-28): 1180 nM
GI50 (DU-145; DU-145, DU-145): 35.3 nM
CC50 (DU-145; DU-145, DU-145): 2780 nM
IC (TGI) (DU-145; DU-145, DU-145): 151 nM
GI50 (LoVo; LoVo): 42.4 nM
CC50 (LoVo; LoVo): 10400 nM
IC (TGI) (LoVo; LoVo): 1160 nM
GI50 (A-549): 128 nM
CC50 (A-549): 11100 nM
IC (TGI) (A-549): 1540 nM
GI50 (IGROV-ET): 5530 nM
CC50 (IGROV-ET): 11100 nM
IC (TGI) (IGROV-ET): 11100 nM
GI50 (IGROV; Homo sapiens, IGROV; GI=growth inhibition; read-out: GI50 IGROV): 267 nM
CC50 (IGROV; [1]): 5880 nM
IC (TGI) (IGROV; Homo sapiens, IGROV; total growth inhibition (cytostatic effect); read-out: TGI IGROV): 1140 nM
GI50 (SK-BR-3; SK-BR-3, SK-BR-3): 187 nM
CC50 (SK-BR-3; SK-BR-3, SK-BR-3): 6660 nM
IC (TGI) (SK-BR-3; SK-BR-3, SK-BR-3): 1200 nM
GI50 (LoVo-Dox): 11100 nM
CC50 (LoVo-Dox): 11100 nM
IC (TGI) (LoVo-Dox): 11100 nM
